Experimental data: the SangsterLogP compilation

Assay: method code SF-TN, from DOI: 10.1021/jm00251a007, PMID: 4151492

logP | SMILES
0.87 | CC(C)NCC(O)COc1ccc2c(OCC(O)CNC(C)C)cccc2c1 (stereo unspecified)
0.63 | CC(C)NCC(O)COc1ccccc1OCC(O)CNC(C)C (stereo unspecified)
0.97 | CC(C)NCC(O)COc1ccccc1-c1ccccc1OCC(O)CNC(C)C (stereo unspecified)
1.07 | CC(C)NCC(O)COc1ccc2ccccc2c1OCC(O)CNC(C)C (stereo unspecified)
1.37 | CC(C)NCC(O)COc1cccc2cccc(OCC(O)CNC(C)C)c12 (stereo unspecified)
1.76 | CC(C)NCC(O)COc1ccccc1 (stereo unspecified)
0.73 | CC(C)NCC(O)COc1cccc(OCC(O)CNC(C)C)c1 (stereo unspecified)
0.99 | CC(C)NCC(O)COc1cc(OCC(O)CNC(C)C)c2ccccc2c1 (stereo unspecified)
0.93 | CC(C)NCC(O)COc1ccc(OCC(O)CNC(C)C)c2ccccc12 (stereo unspecified)
0.98 | CC(C)NCC(O)COc1cccc2c(OCC(O)CNC(C)C)cccc12 (stereo unspecified)
0.67 | CC(C)NCC(O)COc1ccc(OCC(O)CNC(C)C)cc1 (stereo unspecified)
